# Measurements taken from ChEMBL document CHEMBL1201862, “PubChem BioAssay data set” (2004).
# Calls of active or inactive are those of the source.
# Legend:
# [1] = target: T1, Epstein-Barr nuclear antigen 1 (Epstein-Barr virus (strain B95-8) (HHV-4) (Human herpesvirus 4), UniProt P03211); assay: inhibition of EBV nuclear antigen 1 DNA binding – biochemical, fluorescence polarization, 1536-well, dose response (AID 2381); design: species or system human gammaherpesvirus 4;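 further: fluorescence polarization of a Cy5 DNA probe bound by EBNA-1 protein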
# T1 sequence (P03211 whole entry): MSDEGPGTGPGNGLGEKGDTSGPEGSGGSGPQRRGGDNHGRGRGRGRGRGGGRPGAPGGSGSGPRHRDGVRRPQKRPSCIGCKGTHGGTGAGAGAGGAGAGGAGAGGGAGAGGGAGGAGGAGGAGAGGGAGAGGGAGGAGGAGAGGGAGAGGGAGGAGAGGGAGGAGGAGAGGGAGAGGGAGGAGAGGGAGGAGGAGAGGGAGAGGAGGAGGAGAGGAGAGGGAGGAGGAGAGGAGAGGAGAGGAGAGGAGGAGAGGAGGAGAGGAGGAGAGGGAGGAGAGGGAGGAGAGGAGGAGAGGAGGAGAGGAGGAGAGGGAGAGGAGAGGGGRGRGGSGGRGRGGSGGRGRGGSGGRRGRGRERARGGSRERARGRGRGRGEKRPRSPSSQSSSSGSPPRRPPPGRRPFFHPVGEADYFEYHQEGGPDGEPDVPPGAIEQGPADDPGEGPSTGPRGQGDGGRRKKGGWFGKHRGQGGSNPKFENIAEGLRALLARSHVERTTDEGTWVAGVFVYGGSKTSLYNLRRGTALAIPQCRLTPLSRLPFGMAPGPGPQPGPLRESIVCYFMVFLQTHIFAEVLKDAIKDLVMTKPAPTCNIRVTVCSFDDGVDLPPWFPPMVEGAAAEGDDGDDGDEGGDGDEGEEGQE
# [2] = target: T2, Lytic switch protein BZLF1 (Epstein-Barr virus (strain B95-8) (HHV-4) (Human herpesvirus 4), UniProt P03206); assay: inhibition of BZLF1 ZTA DNA binding – biochemical, fluorescence polarization, Epstein-Barr virus, 1536-well, counter-screen for EBNA-1 inhibitor project, dose response (AID 2377); design: species or system human gammaherpesvirus 4;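 further: fluorescence polarization of Cy5-labelled ZRE DNA probe bound by purified Zta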
# T2 sequence (P03206 whole entry): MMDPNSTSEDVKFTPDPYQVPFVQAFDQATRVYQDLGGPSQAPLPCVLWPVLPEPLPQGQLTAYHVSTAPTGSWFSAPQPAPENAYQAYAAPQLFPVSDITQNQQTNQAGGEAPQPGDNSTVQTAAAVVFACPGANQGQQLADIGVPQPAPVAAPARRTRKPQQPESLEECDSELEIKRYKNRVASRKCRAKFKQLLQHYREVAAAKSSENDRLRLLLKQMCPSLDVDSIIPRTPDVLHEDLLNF
# [3] = target: Luciferin 4-monooxygenase (Photinus pyralis, UniProt P08659); assay: Counter Screen for Luciferase-based Assay Positives. [Related pubchem assays: 620, 618, 411 ]
# [4] = target: T3, Heat shock factor protein 1 (Mus musculus, UniProt P38532); assay: decrease of HSF1-responsive luciferase luminescence – cell-based, NIH3T3, dose retest, confirmation (AID 2382); type: functional;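 further: NIH3T3 fibroblasts with HSF1-driven luciferase reporter stressed by proteasome inhibitor MG132; luminescence from HSF1-driven luciferase expression after 8 hours of MG132 stress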
# T3 sequence (P38532 whole entry): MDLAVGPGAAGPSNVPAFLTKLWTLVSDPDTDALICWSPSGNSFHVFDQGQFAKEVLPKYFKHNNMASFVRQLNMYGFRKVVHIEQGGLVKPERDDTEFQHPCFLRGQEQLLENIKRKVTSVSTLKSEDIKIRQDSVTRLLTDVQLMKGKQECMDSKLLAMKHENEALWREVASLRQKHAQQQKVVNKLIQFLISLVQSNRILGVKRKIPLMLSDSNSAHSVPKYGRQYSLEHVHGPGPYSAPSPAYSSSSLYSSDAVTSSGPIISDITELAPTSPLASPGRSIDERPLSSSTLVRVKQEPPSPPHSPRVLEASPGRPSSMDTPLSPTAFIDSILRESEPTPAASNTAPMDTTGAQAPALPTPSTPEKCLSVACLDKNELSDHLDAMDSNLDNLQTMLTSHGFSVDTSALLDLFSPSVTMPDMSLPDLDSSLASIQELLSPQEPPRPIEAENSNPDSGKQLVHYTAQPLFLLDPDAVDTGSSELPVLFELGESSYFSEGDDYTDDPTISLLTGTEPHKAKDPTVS
# HT-1080 = assay: HT1080 cell viability loss – fluorescence readout (AID 620); type: functional, cell-based; conditions: Homo sapiens
# [5] = A549 cell cytotoxicity, dose response, cytotoxicity control, plate reader, cherry-pick, antagonist series (AID 743412); type: functional, cell-based
# [6] = toxicity toward HepG2 liver cells – cell-based, plate reader, cherry-pick, antagonist series, cytotoxicity control, dose response (AID 743416); type: functional
# [7] = blockers of bursicon-stimulated LGR2 cAMP reporter – cell-based, HEK293, CRE-luciferase reporter, cherry pick, set 2, dose response (AID 743343); type: functional;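 further: transfected cells were stimulated with diluted bursicon conditioned medium after compound addition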
# [8] = blockade of melanocortin 4 receptor signaling – cell-based, plate reader, cherry pick, counter-screen for LGR2 antagonist project, dose response (AID 743444); type: functional;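 further: transfected HEK 293 cells stimulated with alpha-MSH peptide; potency of inhibitors of the alpha-MSH evoked signal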
# [9] = target: Eukaryotic translation initiation factor 4H (Homo sapiens, UniProt Q15056); assay: eIF4H binding inhibition – biochemical, uHTS, fluorescence polarization, translation initiation inhibitor project, primary screen (AID 2012)
# [10] = target: Polyadenylate-binding protein 1 (Homo sapiens, UniProt P11940); assay: blockers of PABP interaction with poly(A) – biochemical, fluorescence polarization, […] (AID 2014)
# [11] = target: Melanin-concentrating hormone receptor 1 (Homo sapiens, UniProt Q99705); assay: Late-stage fluorescence-based counterscreen for antagonists of the G-protein coupled receptor 7 (GPR7): cell-based dose response assay to identify antagonists of the melanin-concentrating hormone receptor 1 (MCHR1). [Related pubchem assays (depositor defined):AID1861, AID1880, AID1952, AID2148, AID2251, AID2257, AID485339]; type: functional;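 further: stimulated with 30 nM MCH peptide agonist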
# [12] = viability of PTEN-deleted HCT116 cells – cell-based, HCT116 PTEN knockout, dose response (AID 1047); type: functional;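 further: HCT116 colon tumor cells with PTEN knocked out; cells exposed to compound for 60 hours before readout; potency for loss of cell viability measured by luminescence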
# [13] = viability of HCT116 lacking mutant beta-catenin – cell-based, human colon tumor, dose response (AID 1045); type: functional;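 further: HCT116 colon tumor cells with beta catenin knocked out; cells exposed to compound for 60 hours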
# Nonstructural protein 1 = Nonstructural protein 1 (Influenza A virus, UniProt Q194T2); type: functional, Influenza A virus (A/California/07/2009(H1N1))
# [14] = target: T4, Microphthalmia-associated transcription factor (Homo sapiens, UniProt O75030); assay: reducers of TRPM1 reporter luminescence, concentration series – cell-based, SK-MEL-5, cherry-picked, set 3, MITF inhibitor project, dose response (AID 493073); type: functional;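 further: SK-MEL-5 melanoma cells with luciferase driven by the MITF target TRPM1 promoter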
# T4 sequence (O75030 whole entry): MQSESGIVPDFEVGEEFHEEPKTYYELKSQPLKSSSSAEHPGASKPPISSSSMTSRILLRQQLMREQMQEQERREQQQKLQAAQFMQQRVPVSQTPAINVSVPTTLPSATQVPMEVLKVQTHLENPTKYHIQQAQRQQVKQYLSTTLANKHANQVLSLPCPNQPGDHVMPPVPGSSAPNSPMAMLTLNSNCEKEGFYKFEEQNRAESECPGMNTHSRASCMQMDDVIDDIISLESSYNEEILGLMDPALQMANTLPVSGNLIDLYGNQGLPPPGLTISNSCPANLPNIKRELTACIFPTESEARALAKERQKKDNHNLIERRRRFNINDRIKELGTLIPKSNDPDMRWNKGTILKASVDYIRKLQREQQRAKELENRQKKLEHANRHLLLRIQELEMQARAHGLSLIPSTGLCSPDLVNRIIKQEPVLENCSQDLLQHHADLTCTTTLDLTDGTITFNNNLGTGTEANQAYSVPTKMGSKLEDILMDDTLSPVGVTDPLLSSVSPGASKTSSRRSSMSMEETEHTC
# Vero = assay: mammalian cell viability reduction – secondary assay, cytotoxicity control for West Nile virus antiviral project, dose response (AID 1650); type: functional; conditions: Chlorocebus sabaeus
# [15] = target: T5, Ubiquitin-conjugating enzyme E2 N (Homo sapiens, UniProt P61088); type: functional;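 further: Dose-response confirmation in a TR-FRET assay detecting UBC13-driven polyubiquitin chain formation, inhibition measured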
# T5 sequence (P61088 whole entry): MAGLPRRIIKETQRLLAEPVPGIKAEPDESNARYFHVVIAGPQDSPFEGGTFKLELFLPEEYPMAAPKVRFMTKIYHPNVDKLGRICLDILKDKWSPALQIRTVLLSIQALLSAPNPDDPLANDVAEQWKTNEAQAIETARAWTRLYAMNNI
# Melanin-concentrating hormone receptor 1, sequence (Q99705 whole entry): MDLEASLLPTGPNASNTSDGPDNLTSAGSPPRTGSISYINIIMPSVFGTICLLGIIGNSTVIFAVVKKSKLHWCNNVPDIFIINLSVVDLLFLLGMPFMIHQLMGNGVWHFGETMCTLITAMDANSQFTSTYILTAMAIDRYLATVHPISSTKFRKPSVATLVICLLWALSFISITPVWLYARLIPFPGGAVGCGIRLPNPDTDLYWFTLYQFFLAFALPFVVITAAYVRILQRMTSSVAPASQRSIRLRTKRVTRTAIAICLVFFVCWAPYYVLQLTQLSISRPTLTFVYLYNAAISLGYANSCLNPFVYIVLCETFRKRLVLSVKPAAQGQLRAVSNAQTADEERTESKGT
# Luciferin 4-monooxygenase, sequence (P08659 whole entry): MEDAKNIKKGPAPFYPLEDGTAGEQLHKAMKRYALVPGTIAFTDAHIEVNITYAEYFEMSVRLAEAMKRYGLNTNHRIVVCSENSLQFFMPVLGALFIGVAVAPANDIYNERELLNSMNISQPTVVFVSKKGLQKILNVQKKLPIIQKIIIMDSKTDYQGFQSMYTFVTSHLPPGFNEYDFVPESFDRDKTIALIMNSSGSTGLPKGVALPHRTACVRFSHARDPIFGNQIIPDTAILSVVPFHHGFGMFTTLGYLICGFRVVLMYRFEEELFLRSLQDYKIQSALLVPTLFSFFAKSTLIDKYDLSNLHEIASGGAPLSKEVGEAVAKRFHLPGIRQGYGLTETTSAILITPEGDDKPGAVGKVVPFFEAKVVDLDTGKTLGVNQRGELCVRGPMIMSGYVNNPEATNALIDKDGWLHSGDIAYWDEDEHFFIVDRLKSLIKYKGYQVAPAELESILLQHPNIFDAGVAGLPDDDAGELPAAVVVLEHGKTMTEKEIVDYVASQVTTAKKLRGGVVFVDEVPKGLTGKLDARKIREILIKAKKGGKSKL
# Polyadenylate-binding protein 1, sequence (P11940 whole entry): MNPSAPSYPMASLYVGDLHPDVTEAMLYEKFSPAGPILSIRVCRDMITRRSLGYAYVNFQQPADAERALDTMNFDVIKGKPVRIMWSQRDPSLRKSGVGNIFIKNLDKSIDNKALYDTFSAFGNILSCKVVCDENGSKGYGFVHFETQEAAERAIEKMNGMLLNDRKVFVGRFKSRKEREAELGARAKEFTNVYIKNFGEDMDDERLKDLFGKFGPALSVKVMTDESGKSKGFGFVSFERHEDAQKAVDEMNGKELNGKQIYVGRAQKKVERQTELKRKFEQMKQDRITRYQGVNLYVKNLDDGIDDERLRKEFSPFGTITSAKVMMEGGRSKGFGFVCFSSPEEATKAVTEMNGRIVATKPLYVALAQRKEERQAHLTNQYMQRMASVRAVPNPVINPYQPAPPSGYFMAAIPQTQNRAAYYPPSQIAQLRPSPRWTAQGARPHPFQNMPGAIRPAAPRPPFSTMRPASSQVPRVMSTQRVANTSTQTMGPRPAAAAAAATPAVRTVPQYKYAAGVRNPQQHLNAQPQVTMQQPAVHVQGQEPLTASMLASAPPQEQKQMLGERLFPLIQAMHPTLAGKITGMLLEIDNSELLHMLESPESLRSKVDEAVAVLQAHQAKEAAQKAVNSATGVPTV
# Nonstructural protein 1, sequence (Q194T2 whole entry): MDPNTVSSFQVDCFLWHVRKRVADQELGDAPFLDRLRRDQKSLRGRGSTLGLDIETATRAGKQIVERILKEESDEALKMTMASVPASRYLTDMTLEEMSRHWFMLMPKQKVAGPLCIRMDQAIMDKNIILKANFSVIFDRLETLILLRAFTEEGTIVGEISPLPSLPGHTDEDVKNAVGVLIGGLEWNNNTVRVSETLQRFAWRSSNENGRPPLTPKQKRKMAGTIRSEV
compound,measurement,setting,value
COc1ccc(Cl)cc1NC(=O)CN1CCN(S(=O)(=O)c2ccc(F)cc2)CC1,IC50,[1],16.4 µM (not active)
same,IC50,[2],> 111 µM (not active)
Cc1oc(-c2ccc3c(c2)OCCO3)cc1C(=O)O,EC50,[3],1.25 µM (active)
same,EC50,[4],0.312 µM (active)
same,EC50,HT-1080,> 50 µM (not active)
same,AC50,[5],> 52 µM (inactive)
same,AC50,[6],> 52 µM (inactive)
same,AC50,[7],7.05 µM (active)
same,AC50,[8],7.49 µM (active)
C/C(=N\NC(=O)c1c(Br)cnn1C)c1ccc(NC(=O)c2ccc(F)cc2)cc1,IC50,[1],3.62 µM (active)
same,IC50,[2],> 111 µM (not active)
CN(CC(=O)NC(=O)NCc1ccco1)CC(=O)Nc1ccccc1Cl,IC50,[9],20.5 µM (active)
same,IC50,[10],60.8 µM (active)
CC(C)c1ccc(-n2ncc(Cl)c(Oc3ccc(OC(F)(F)F)cc3)c2=O)cc1,IC50,[11],12 µM (inactive)
CN(C)c1ccc(NC(=S)c2ccccn2)cc1,EC50,[3],0.52 µM (active)
same,EC50,[12],92.2 µM (active)
same,EC50,HT-1080,> 50 µM (not active)
same,EC50,[13],136 µM (active)
same,IC50,Nonstructural protein 1,28.3 µM (active)
same,AC50,[14],2.84 µM (active)
COc1ccc(Oc2c(-c3ccco3)cnn(-c3ccc(C)cc3)c2=O)cc1,IC50,[11],13.5 µM (inactive)
Cc1ccc(C(=O)OCC(=O)NC2CCCCC2)o1,IC50,[9],51 µM (active)
same,IC50,[10],63 µM (active)
CC1CC(C)CN(CCCNC(=O)C2CCN(c3ncnc4c3sc3cccc(F)c34)CC2)C1 (stereo not given),CC50,Vero,> 100 µM (active)
same,IC50,[15],> 20 µM (inactive)
